Laboratory results taken from PubChem BioAssay AID651875 (NMMLSC, 2012).

tested on: AM2.2 cells FAP-GPR32, fluorogen binding, flow cytometry MCF; assay: interference with FAP fluorogen signal – AM2.2 cells, flow cytometry, powder set 4, counter-screen for beta2AR agonist internalization project, dose response (AID 651875)

Which EC50 does the source give for `O=C(CN(Cc1ccccc1)S(=O)(=O)c1ccc(Cl)cc1)N1CCN(c2ccccn2)CC1` here?
Its EC50 is 316 nM.

With `Cc1ccc(S(=O)(=O)N(C)CC(=O)N2CCN(c3ccccn3)CC2)cc1` as the compound, how does the EC50 read?
The EC50 was 3.7 nM.

How did the EC50 turn out when `CC(=O)Nc1ccc(S(=O)(=O)N2CCCCC2c2cccnc2)cc1` (stereo not given) was run?
Its EC50 is 15.6 nM.

`COc1ccccc1N1CCN(C(=O)CN(C)S(=O)(=O)c2ccc(C)cc2)CC1` was tested. Which EC50 did it give?
Its EC50 is 974 nM.

`O=C(C1CCC(=O)N1S(=O)(=O)c1ccccc1)N1CCN(c2ccccn2)CC1` (stereo not given) was tested. Which EC50 did it give?
The EC50 was 49.6 nM.
